Results: patent publication US11780845B2 (Relay Therapeutics, Inc., priority 2019, dated 2023)

Legend:
FGFR2 = FGFR2 (Homo sapiens (Human), UniProt P21802); assay: FGFR2 Biochemical Caliper Assay
Protocol: Compounds of the present invention were also tested in a FGFR2 Biochemical Caliper Assay. Compounds were prepared in 10 mM DMSO solution and serially diluted into 11 concentrations by 3-fold dilution. […] 5 uL of ATP solution (100 uM) was added to start the reaction and the plate was incubated for 90 minutes, then 70 uL of stopping buffer (0.5M EDTA) was added to terminate the reaction. Each well was analyzed using EZ reader.

SNU16 cells = assay: SNU16 Cancer Cell Line Proliferation Assay; format: cell-based; settings: Homo sapiens; SNU-16 cells
Method in brief: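 Proliferation read-out: CellTiter Glo chemiluminescence after 96 h compound exposure. Test compounds, serially diluted 3-fold over 11 points from a 10 mM DMSO stock, were added to SNU16 cells plated 24 h earlier at 37 degrees.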

Sequence of FGFR2 (P21802 22-821): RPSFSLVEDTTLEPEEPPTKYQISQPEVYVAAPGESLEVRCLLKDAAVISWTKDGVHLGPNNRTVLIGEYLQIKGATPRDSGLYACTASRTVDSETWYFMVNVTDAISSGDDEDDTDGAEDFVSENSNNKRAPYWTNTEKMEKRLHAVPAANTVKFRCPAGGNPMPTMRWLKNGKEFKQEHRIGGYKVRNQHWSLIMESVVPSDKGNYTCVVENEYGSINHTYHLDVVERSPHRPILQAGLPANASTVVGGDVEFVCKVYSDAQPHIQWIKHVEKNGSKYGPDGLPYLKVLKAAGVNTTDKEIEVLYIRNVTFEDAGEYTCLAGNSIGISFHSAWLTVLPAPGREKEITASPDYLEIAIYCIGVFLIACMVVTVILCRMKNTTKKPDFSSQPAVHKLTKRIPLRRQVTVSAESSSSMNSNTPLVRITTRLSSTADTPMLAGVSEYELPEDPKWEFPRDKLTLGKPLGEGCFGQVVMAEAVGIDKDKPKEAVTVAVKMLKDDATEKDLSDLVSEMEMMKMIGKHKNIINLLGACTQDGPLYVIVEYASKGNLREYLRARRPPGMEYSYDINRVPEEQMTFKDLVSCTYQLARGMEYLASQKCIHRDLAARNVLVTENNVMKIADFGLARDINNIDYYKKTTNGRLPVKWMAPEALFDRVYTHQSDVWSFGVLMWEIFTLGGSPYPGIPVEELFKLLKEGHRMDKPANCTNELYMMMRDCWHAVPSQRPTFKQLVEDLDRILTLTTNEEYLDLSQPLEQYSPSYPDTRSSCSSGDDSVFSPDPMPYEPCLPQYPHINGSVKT

Compound | IC50 (FGFR2) | IC50 (SNU16 cells)
C=CC(=O)Nc1ccc(-c2c(-c3ccc(C(=O)N4CCCC4)cc3)c3c(N)ncnc3n2C)c(F)c1 [Example 213] | < 100 nM | ≤ 100 nM
C=C(C)C(=O)Nc1ccc(-c2c(-c3ccc(C(=O)N4CCCC4)cc3)c3c(N)ncnc3n2C)cc1F [Example 215] | 250 to 1000 nM | 250 to 1000 nM
C=CC(=O)Nc1ccc(-c2c(-c3ccc(ON4CCCC4)cc3)c3c(N)ncnc3n2C)c(C)c1 [Example 216] | < 100 nM | ≤ 100 nM
C=CC(=O)Nc1ccc(-c2c(-c3ccc(C(=O)N4CCCC4)cc3)c3c(N)ncnc3n2C)cc1F [Example 217] | < 100 nM | ≤ 100 nM
C=CC(=O)Nc1c(F)cc(-c2c(-c3ccc(C(=O)N4CCCC4)cc3)c3c(N)ncnc3n2C)cc1F [Example 219] | < 100 nM | ≤ 100 nM
C=CC(=O)Nc1ccc(-c2c(-c3ccc(C(=O)N4CCCC4)cc3)c3c(N)ncnc3n2C)cc1C [Example 220] | < 100 nM | ≤ 100 nM
C=C(C)C(=O)Nc1ccc(-c2c(-c3ccc(OC4CCCC4)cc3)c3c(N)ncnc3n2C)cc1 [Example 223] | < 100 nM | ≤ 100 nM
C=C(C)C(=O)Nc1ccc(-c2c(-c3ccc(NC(=O)C4CCCC4)cc3)c3c(N)ncnc3n2C)cc1 [Example 224] | < 100 nM | ≤ 100 nM
C=C(C)C(=O)Nc1ccc(-c2c(-c3ccc(C(=O)N4CC5CCC4CO5)cc3)c3c(N)ncnc3n2C)cc1 (stereo not drawn) [Example 238] | 250 to 1000 nM | 250 to 1000 nM
C=C(C)C(=O)Nc1ccc(-c2c(-c3ccc(C(=O)N4CC5(CCCC5)C4)cc3)c3c(N)ncnc3n2C)cc1 [Example 241] | 1000 to 100000 nM | 250 to 1000 nM
C=C(C)C(=O)Nc1ccc(-c2c(-c3ccc(Cn4cccn4)cc3)c3c(N)ncnc3n2C)cc1 [Example 244] | 1000 to 100000 nM | 250 to 1000 nM
C=C(C)C(=O)Nc1ccc(-c2c(-c3ccc(C(=O)N4CCC5(CCC5)C4)cc3)c3c(N)ncnc3n2C)cc1 [Example 245] | 250 to 1000 nM | 250 to 1000 nM
C=C(C)C(=O)Nc1ccc(-c2c(-c3ccc(C(=O)N4CC5CCCCC5C4)cc3)c3c(N)ncnc3n2C)cc1 (stereo not drawn) [Example 246] | 250 to 1000 nM | 100 to 250 nM
C=C(C)C(=O)Nc1ccc(-c2c(-c3ccc(C(=O)N4CC5COCC5C4)cc3)c3c(N)ncnc3n2C)cc1 (stereo not drawn) [Example 249] | 250 to 1000 nM | 250 to 1000 nM
C=CC(=O)Nc1ccc(-c2c(-c3ccc(Cn4nc(C)cc4C)cc3)c3c(N)ncnc3n2C)cc1 [Example 260] | < 100 nM | ≤ 100 nM
C=C(C)C(=O)Nc1ccc(-c2c(-c3ccc(C(=O)N4CC5CCC4CC5)cc3)c3c(N)ncnc3n2C)cc1 [Example 262] | < 100 nM | ≤ 100 nM
C=C(C)C(=O)Nc1ccc(-c2c(-c3ccc(Cn4cc(C)cn4)cc3)c3c(N)ncnc3n2C)cc1 [Example 263] | 1000 to 100000 nM | 250 to 1000 nM
C=C(C)C(=O)Nc1ccc(-c2c(-c3ccc(C(=O)N4CCCC5(CC5)C4)cc3)c3c(N)ncnc3n2C)cc1 [Example 264] | 100 to 250 nM | ≤ 100 nM
C=C(C)C(=O)Nc1ccc(-c2c(-c3ccc(Cn4nccc4C)cc3)c3c(N)ncnc3n2C)cc1 [Example 266] | 1000 to 100000 nM | 250 to 1000 nM
C=C(C)C(=O)Nc1ccc(-c2c(-c3ccc(Oc4ccn(C)n4)cc3)c3c(N)ncnc3n2C)cc1 [Example 267] | < 100 nM | ≤ 100 nM
C=C(C)C(=O)Nc1ccc(-c2c(-c3ccc(Cn4ccc(C)n4)cc3)c3c(N)ncnc3n2C)cc1 [Example 274] | 100 to 250 nM | 250 to 1000 nM
C=CC(=O)Nc1ccc(-c2c(-c3ccc(Oc4ccn(C)n4)cc3)c3c(N)ncnc3n2C)cc1 [Example 276] | < 100 nM | ≤ 100 nM
C=CC(=O)Nc1ccc(-c2c(C3=CCC(C(=O)N(C)C)CC3)c3c(N)ncnc3n2C)cc1 (stereo not drawn) [Example 296] | < 100 nM | ≤ 100 nM
C=CC(=O)Nc1ccc(-c2c(C3=CCC(C(=O)N4CCCC4)CC3)c3c(N)ncnc3n2C)cc1 (stereo not drawn) [Example 297] | < 100 nM | ≤ 100 nM
C=CC(=O)Nc1ccc(-c2c(C3=CCC(C(=O)NC4CCCC4)CC3)c3c(N)ncnc3n2C)cc1 (stereo not drawn) [Example 298] | < 100 nM | ≤ 100 nM
C=C(C)C(=O)Nc1ccc(-c2c(-c3ccc(C(=O)N4CC5CCC(C5)C4)cc3)c3c(N)ncnc3n2C)cc1 [Example 299] | < 100 nM | ≤ 100 nM
C=C(C)C(=O)Nc1ccc(-c2c(-c3ccc(S(=O)(=O)NC4COC4)cc3)c3c(N)ncnc3n2C)cc1 [Example 301] | 1000 to 100000 nM | 250 to 1000 nM
C=CC(=O)Nc1ccc(-c2c(C3CCC(C(=O)NC)CC3)c3c(N)ncnc3n2C)cc1 (stereo not drawn) [Example 302] | 1000 to 100000 nM | 250 to 1000 nM

Other lines, results leading:

IC50 (FGFR2) | IC50 (SNU16 cells) | Compound
< 100 nM | ≤ 100 nM | C=C(C)C(=O)Nc1ccc(-c2c(-c3ccc(C(=O)NC4CCCC4)cc3)c3c(N)ncnc3n2C)cc1 [Example 212]
100 to 250 nM | 100 to 250 nM | C=C(C)C(=O)Nc1ccc(-c2c(-c3ccc(C(=O)N(C)C4CCC4)cc3)c3c(N)ncnc3n2C)cc1 [Example 227]
< 100 nM | ≤ 100 nM | C=C(C)C(=O)Nc1ccc(-c2c(-c3ccc(C(=O)N4CCC5CC5C4)cc3)c3c(N)ncnc3n2C)cc1 (stereo not drawn) [Example 228]
< 100 nM | ≤ 100 nM | C=C(C)C(=O)Nc1ccc(-c2c(-c3ccc(C(=O)N4CCC5CC54)cc3)c3c(N)ncnc3n2C)cc1 (stereo not drawn) [Example 229]
< 100 nM | ≤ 100 nM | C=C(C)C(=O)Nc1ccc(-c2c(-c3ccc(C(=O)N4CCCCCC4)cc3)c3c(N)ncnc3n2C)cc1 [Example 230]
100 to 250 nM | 100 to 250 nM | C=C(C)C(=O)Nc1ccc(-c2c(-c3ccc(C(=O)N(C)C4CCCC4)cc3)c3c(N)ncnc3n2C)cc1 [Example 233]
< 100 nM | ≤ 100 nM | C=C(C)C(=O)Nc1ccc(-c2c(-c3ccc(C(=O)N4CCC5(CC5)C4)cc3)c3c(N)ncnc3n2C)cc1 [Example 234]
100 to 250 nM | 100 to 250 nM | C=C(C)C(=O)Nc1ccc(-c2c(-c3ccc(C(=O)N4CCCCC4=O)cc3)c3c(N)ncnc3n2C)cc1 [Example 236]
100 to 250 nM | 100 to 250 nM | C=C(C)C(=O)Nc1ccc(-c2c(-c3ccc(C(=O)N4CC5CC5C4)cc3)c3c(N)ncnc3n2C)cc1 (stereo not drawn) [Example 237]
< 100 nM | ≤ 100 nM | C=C(C)C(=O)Nc1ccc(-c2c(-c3ccc(C(=O)N4CCCC5CC54)cc3)c3c(N)ncnc3n2C)cc1 (stereo not drawn) [Example 239]
< 100 nM | ≤ 100 nM | C=C(C)C(=O)Nc1ccc(-c2c(-c3ccc(C(=O)NCC(F)(F)F)cc3)c3c(N)ncnc3n2C)cc1 [Example 248]
< 100 nM | ≤ 100 nM | C=C(C)C(=O)Nc1ccc(-c2c(-c3ccc(C(=O)N4CCCC(C)C4)cc3)c3c(N)ncnc3n2C)cc1 (stereo not drawn) [Example 255]
250 to 1000 nM | 250 to 1000 nM | C=C(C)C(=O)Nc1ccc(-c2c(-c3ccc(C(=O)Nc4ncccn4)cc3)c3c(N)ncnc3n2C)cc1 [Example 257]
< 100 nM | ≤ 100 nM | C=C(C)C(=O)Nc1ccc(-c2c(-c3ccc(C(=O)N4CC5CCC4C5)cc3)c3c(N)ncnc3n2C)cc1 (stereo not drawn) [Example 258]
< 100 nM | ≤ 100 nM | C=C(C)C(=O)Nc1ccc(-c2c(-c3ccc(C(=O)NC4CCC4)cc3)c3c(N)ncnc3n2C)cc1 [Example 265]
250 to 1000 nM | 250 to 1000 nM | C=C(C)C(=O)Nc1ccc(-c2c(-c3ccc(C(=O)N(C)Cc4nc(C)no4)cc3)c3c(N)ncnc3n2C)cc1 [Example 270]
< 100 nM | ≤ 100 nM | C=C(C)C(=O)Nc1ccc(-c2c(-c3ccc(C(=O)N4CC5CC4C5)cc3)c3c(N)ncnc3n2C)cc1 [Example 272]
100 to 250 nM | 250 to 1000 nM | C=C(C)C(=O)Nc1ccc(-c2c(-c3ccc(C(=O)NCc4ncon4)cc3)c3c(N)ncnc3n2C)cc1 [Example 282]
< 100 nM | ≤ 100 nM | C=C(C)C(=O)Nc1ccc(-c2c(-c3ccc(C(=O)NC4CCOC4)cc3)c3c(N)ncnc3n2C)cc1 (stereo not drawn) [Example 283]
< 100 nM | 250 to 1000 nM | C=C(C)C(=O)Nc1ccc(-c2c(-c3ccc(C(=O)NCC(C)(C)O)cc3)c3c(N)ncnc3n2C)cc1 [Example 288]
250 to 1000 nM | 250 to 1000 nM | C=C(C)C(=O)Nc1ccc(-c2c(-c3ccc(C(=O)NC4COC4)cc3)c3c(N)ncnc3n2C)cc1 [Example 289]
< 100 nM | 100 to 250 nM | C=C(C)C(=O)Nc1ccc(-c2c(-c3ccc(C(=O)N[C@@H](CO)C4CC4)cc3)c3c(N)ncnc3n2C)cc1 [Example 290]
< 100 nM | ≤ 100 nM | C=C(C)C(=O)Nc1ccc(-c2c(-c3ccc(C(=O)N4CC5CCC5C4)cc3)c3c(N)ncnc3n2C)cc1 (stereo not drawn) [Example 291]
< 100 nM | ≤ 100 nM | C=C(C)C(=O)Nc1ccc(-c2c(-c3ccc(C(=O)N4CCCC[C@@H]4C)cc3)c3c(N)ncnc3n2C)cc1 [Example 292]
< 100 nM | ≤ 100 nM | C=C(C)C(=O)Nc1ccc(-c2c(-c3ccc(C(=O)N4CCCC[C@H]4C)cc3)c3c(N)ncnc3n2C)cc1 [Example 293]
1000 to 100000 nM | 250 to 1000 nM | C=C(C)C(=O)Nc1ccc(-c2c(-c3ccc(C(=O)N(C)Cc4cnn(C)c4)cc3)c3c(N)ncnc3n2C)cc1 [Example 294]
1000 to 100000 nM | 250 to 1000 nM | C=C(C)C(=O)Nc1ccc(-c2c(-c3ccc(C(=O)Nc4ncon4)cc3)c3c(N)ncnc3n2C)cc1 [Example 295]
< 100 nM | ≤ 100 nM | C=C(C)C(=O)Nc1ccc(-c2c(-c3ccc(C(=O)N[C@@H]4CCOC4)cc3)c3c(N)ncnc3n2C)cc1 [Example 300]
250 to 1000 nM | 250 to 1000 nM | C=C(C)C(=O)Nc1ccc(-c2c(-c3ccc(S(=O)(=O)NCC(C)C)cc3)c3c(N)ncnc3n2C)cc1 [Example 303]
